According to ChEMBL document CHEMBL1135579, “Serine-threonine protein phosphatase inhibitors: development of potential therapeutic strategies” (J Med Chem, 2002):
Blank lines part the entries; values can stand above or below the compound they belong to.

Columns and labels:
[1] = Exogenous inhibition concentration of Serine/threonine protein phosphatase 2B (PP2B)
[2] = Exogenous inhibition of Serine/threonine protein phosphatase 1 (PP1); set-up: species or system Homo sapiens
[3] = Selectivity for interaction at Serine/threonine protein phosphatase 2B (PP2B); settings: read-out: Ki app
[4] = biological target: T1, Serine/threonine-protein phosphatase PP1-gamma catalytic subunit (Homo sapiens, UniProt P36873); assay: Inhibition of Serine/threonine protein phosphatase 1 (PP1) mutants by natural toxins in wild type
Target sequence in this assay (P36873 2-323 limits assumed, stated change not applied): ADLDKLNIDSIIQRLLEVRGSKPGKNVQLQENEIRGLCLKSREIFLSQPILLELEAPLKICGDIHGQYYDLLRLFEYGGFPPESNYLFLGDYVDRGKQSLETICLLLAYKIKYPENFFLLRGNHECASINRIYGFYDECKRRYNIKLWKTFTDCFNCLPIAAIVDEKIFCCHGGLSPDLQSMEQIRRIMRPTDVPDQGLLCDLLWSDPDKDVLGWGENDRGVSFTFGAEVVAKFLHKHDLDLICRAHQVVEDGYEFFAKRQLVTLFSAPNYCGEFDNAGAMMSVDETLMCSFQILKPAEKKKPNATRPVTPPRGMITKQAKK

[5] = Exogenous inhibition concentration of Serine/threonine protein phosphatase 2C (PP2C); NI means no inhibition.
[6] = Exogenous inhibition concentration of Serine/threonine protein phosphatase 4 (PP4)
[7] = biological target: Serine/threonine-protein phosphatase PP1-gamma catalytic subunit (Homo sapiens, UniProt P36873, H248N); assay: Inhibition of Serine/threonine protein phosphatase 1 (PP1) mutant type H248N by compound was evaluated
[8] = biological target: Serine/threonine-protein phosphatase PP1-gamma catalytic subunit (Homo sapiens, UniProt P36873, C127S); assay: Inhibition of Serine/threonine protein phosphatase 1 (PP1) mutant type C127S by compound was evaluated
[9] = biological target: Serine/threonine-protein phosphatase PP1-gamma catalytic subunit (Homo sapiens, UniProt P36873, D208A); assay: Inhibition of Serine/threonine protein phosphatase 1 (PP1) mutant type D208A by compound was evaluated
[10] = biological target: Serine/threonine-protein phosphatase PP1-gamma catalytic subunit (Homo sapiens, UniProt P36873, D220V); assay: Inhibition of Serine/threonine protein phosphatase 1 (PP1) mutant type D220V by compound was evaluated
[11] = biological target: Serine/threonine-protein phosphatase PP1-gamma catalytic subunit (Homo sapiens, UniProt P36873, E275R); assay: Inhibition of Serine/threonine protein phosphatase 1 (PP1) mutant type E275R by compound was evaluated
[12] = biological target: Serine/threonine-protein phosphatase PP1-gamma catalytic subunit (Homo sapiens, UniProt P36873, N124D); assay: Inhibition of Serine/threonine protein phosphatase 1 (PP1) mutant type N124D by compound was evaluated
[13] = biological target: Serine/threonine-protein phosphatase PP1-gamma catalytic subunit (Homo sapiens, UniProt P36873, R221S); assay: Inhibition of Serine/threonine protein phosphatase 1 (PP1) mutant type R221S by compound was evaluated
[14] = biological target: Serine/threonine-protein phosphatase PP1-gamma catalytic subunit (Homo sapiens, UniProt P36873, R96A); assay: Inhibition of Serine/threonine protein phosphatase 1 (PP1) mutant type R96A by compound was evaluated
[15] = biological target: Serine/threonine-protein phosphatase PP1-gamma catalytic subunit (Homo sapiens, UniProt P36873, Y272F); assay: Inhibition of Serine/threonine protein phosphatase 1 (PP1) mutant type Y272F by compound was evaluated
[16] = Inhibition of growth after 72 hr continuous exposure to test compounds in Ovarian A2780 tumor cell lines; assay type: functional; settings: A2780, 72 h
[17] = Inhibition of growth after 72 hr continuous exposure to test compounds in Osteosarcoma 143B tumor cell lines; assay type: functional; settings: Homo sapiens
[18] = Inhibition of growth after 72 hr continuous exposure to test compounds in Ovarian ADDP tumor cell lines; assay type: functional
[19] = biological target: T1, Serine/threonine-protein phosphatase PP1-gamma catalytic subunit; assay: Inhibition of Serine/threonine protein phosphatase 1 by anhydride modified Cantharidin analogues
Target sequence in this assay (P36873 whole entry): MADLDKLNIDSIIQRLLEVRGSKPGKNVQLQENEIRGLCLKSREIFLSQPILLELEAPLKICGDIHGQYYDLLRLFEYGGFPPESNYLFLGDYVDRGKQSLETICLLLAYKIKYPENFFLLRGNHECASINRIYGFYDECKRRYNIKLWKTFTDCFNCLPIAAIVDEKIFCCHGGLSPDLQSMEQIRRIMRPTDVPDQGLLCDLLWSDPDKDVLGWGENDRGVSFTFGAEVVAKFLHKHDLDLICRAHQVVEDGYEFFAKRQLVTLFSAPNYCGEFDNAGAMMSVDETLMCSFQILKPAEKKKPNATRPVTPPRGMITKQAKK

[20] = biological target: T2, Serine-threonine protein phosphatase 2A regulatory subunit (Gallus gallus, UniProt Q8AWE3); assay: Inhibition of Serine/threonine protein phosphatase 2A by anhydride modified Cantharidin analogues
T2 sequence (Q8AWE3 whole entry): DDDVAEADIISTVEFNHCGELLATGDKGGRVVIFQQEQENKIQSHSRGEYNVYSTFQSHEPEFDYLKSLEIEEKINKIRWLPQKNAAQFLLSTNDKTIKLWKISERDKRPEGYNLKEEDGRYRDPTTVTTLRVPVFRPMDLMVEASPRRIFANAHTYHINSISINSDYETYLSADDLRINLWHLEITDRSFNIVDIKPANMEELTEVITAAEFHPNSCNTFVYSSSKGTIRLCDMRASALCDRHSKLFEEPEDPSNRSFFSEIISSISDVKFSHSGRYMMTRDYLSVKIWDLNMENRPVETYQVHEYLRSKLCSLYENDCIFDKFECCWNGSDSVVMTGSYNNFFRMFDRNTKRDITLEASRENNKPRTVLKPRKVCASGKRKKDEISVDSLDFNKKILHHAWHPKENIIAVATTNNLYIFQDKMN

[21] = biological target: T3, Serine-threonine protein phosphatase 2A regulatory subunit (Gallus gallus) (UniProt Q8AWE3); assay: Tested for selective inhibition of Serine/threonine protein phosphatase 2A (PP2A) with respect to inhibition of Serine/threonine protein phosphatase 1 (PP1)
T3 sequence (whole entry): T2 sequence (Q8AWE3 whole entry)

[22] = Inhibition of growth after 72 hr continuous exposure to test compounds in Colon HCT 116 tumor cell lines; assay type: functional; settings: Homo sapiens, HCT-116, 72 h
[23] = Inhibition of growth after 72 hr continuous exposure to test compounds in colon HT-29 tumor cell lines; assay type: functional; settings: Homo sapiens, HT-29, 72 h

Chain of Serine/threonine-protein phosphatase PP1-gamma catalytic subunit (Homo sapiens, UniProt P36873, H248N) (P36873 2-323 H248N limits assumed): as the sequence (P36873 2-323 limits assumed, stated change not applied) above, with H247N counted along it
Chain of Serine/threonine-protein phosphatase PP1-gamma catalytic subunit (Homo sapiens, UniProt P36873, R221S) (P36873 2-323 R221S limits assumed): as the sequence (P36873 2-323 limits assumed, stated change not applied) above, with R220S counted along it
Chain of Serine/threonine-protein phosphatase PP1-gamma catalytic subunit (Homo sapiens, UniProt P36873, D208A) (P36873 2-323 D208A limits assumed): as the sequence (P36873 2-323 limits assumed, stated change not applied) above, with D207A counted along it
Chain of Serine/threonine-protein phosphatase PP1-gamma catalytic subunit (Homo sapiens, UniProt P36873, D220V) (P36873 2-323 D220V limits assumed): as the sequence (P36873 2-323 limits assumed, stated change not applied) above, with D219V counted along it
Chain of Serine/threonine-protein phosphatase PP1-gamma catalytic subunit (Homo sapiens, UniProt P36873, E275R) (P36873 2-323 E275R limits assumed): as the sequence (P36873 2-323 limits assumed, stated change not applied) above, with E274R counted along it
Chain of Serine/threonine-protein phosphatase PP1-gamma catalytic subunit (Homo sapiens, UniProt P36873, C127S) (P36873 2-323 C127S limits assumed): as the sequence (P36873 2-323 limits assumed, stated change not applied) above, with C126S counted along it
Chain of Serine/threonine-protein phosphatase PP1-gamma catalytic subunit (Homo sapiens, UniProt P36873, R96A) (P36873 2-323 R96A limits assumed): as the sequence (P36873 2-323 limits assumed, stated change not applied) above, with R95A counted along it
Chain of Serine/threonine-protein phosphatase PP1-gamma catalytic subunit (Homo sapiens, UniProt P36873, N124D) (P36873 2-323 N124D limits assumed): as the sequence (P36873 2-323 limits assumed, stated change not applied) above, with N123D counted along it
Chain of Serine/threonine-protein phosphatase PP1-gamma catalytic subunit (Homo sapiens, UniProt P36873, Y272F) (P36873 2-323 Y272F limits assumed): as the sequence (P36873 2-323 limits assumed, stated change not applied) above, with Y271F counted along it

- IC50 [1]: 11.5 µM
- IC50 [2]: 4 µM
- Ki [3]: 0.5 µM
SMILES: O=C(O)C1C2C[C@H](COC(=O)C3C[C@H]3c3ccccc3)[C@@H](O2)C1C(=O)O (stereo not given in full)

SMILES: C=C1[C@@H](O)[C@@H]2O[C@]3(CC[C@H](/C=C/[C@@H](C)[C@@H]4CC(C)=C[C@@]5(O[C@H](C[C@@](C)(O)C(=O)O)CC[C@H]5O)O4)O3)CC[C@H]2O[C@@H]1[C@@H](O)C[C@H](C)[C@H]1O[C@@]2(CCCCO2)CC[C@H]1C [OKADAIC ACID]
- IC50 [4]: 0.045 µM
- IC50 [1]: > 10000 µM
- IC50 [5]: no inhibition
- IC50 [6]: 0.0002 µM
- IC50 [2]: 0.003 µM
- IC50 [7]: > 5 µM
- IC50 [8]: 0.078 µM
- IC50 [9]: > 5 µM
- IC50 [10]: 0.028 µM
- IC50 [11]: 0.048 µM
- IC50 [12]: > 5 µM
- IC50 [13]: > 5 µM
- IC50 [14]: 0.26 µM
- IC50 [15]: 1.15 µM

SMILES: CCOC(=O)C1C(C(=O)O)C2CC[C@H]1O2 (stereo not given in full)
- GI50 [16]: 185 µM
- GI50 [17]: 437 µM
- GI50 [18]: 330 µM
- IC50 [19]: 2.96 µM
- IC50 [20]: 0.45 µM
- PP2A Selectivity [21]: 6.6
- GI50 [22]: 266 µM
- GI50 [23]: 243 µM
